Here are results for ten molecules from ChEMBL document CHEMBL1122982, “Conformational factors in cardiac glycoside activity” (1985).

Molecules are shown by their SMILES.

This experiment is filed under the species Cavia porcellus. Briefly: Relative […] activity evaluated in guinea pig left atria. Format: functional.
`C[C@H]1O[C@H]2O[C@@H]3C[C@@H]4CC[C@@H]5[C@H](CC[C@]6(C)[C@@H](C7=CC(=O)OC7)CC[C@]56O)[C@@]4(C)C[C@H]3O[C@@]2(O)[C@@H](O)[C@H]1O` yielded a Relative ionotropic activity of 1.

`C[C@@H]1O[C@@H](O[C@H]2CC[C@@]3(C)[C@@H](CC[C@@H]4[C@@H]3CC[C@]3(C)[C@@H](C5=CC(=O)OC5)CC[C@@]43O)C2)C[C@H](O)[C@@H]1O` registered a Relative ionotropic activity of 15.

Take `C[C@]12CC[C@H](O)C[C@H]1CC[C@@H]1[C@@H]2CC[C@]2(C)[C@@H](C3=CC(=O)OC3)CC[C@]12O` (stereo in doubt) [DIGITOXIGENIN]: the Relative ionotropic activity is listed as 1.

Take `C[C@]12CC[C@H](O)C[C@H]1CC[C@@H]1[C@@H]2CC[C@]2(C)[C@@H](C3=CC(=O)OC3)CC[C@]12O` (stereo in doubt; V) [DIGITOXIGENIN]: the Relative ionotropic activity was 1.2.

In the case of `C[C@@H]1O[C@@H](O[C@H]2CC[C@@]3(C)[C@H](CC[C@@H]4[C@@H]3CC[C@]3(C)[C@@H](C5=CC(=O)OC5)CC[C@]43O)C2)[C@H](O)[C@H](O)[C@H]1O` (stereo in doubt; X), the Relative ionotropic activity stood at 3.

Molecule `C[C@@H]1O[C@@H](O[C@H]2CC[C@@]3(C)[C@H](CC[C@@H]4[C@@H]3CC[C@]3(C)[C@@H](C5=CC(=O)OC5)CC[C@]43O)C2)[C@H](O)[C@H](O)[C@H]1O` (stereo in doubt; form 1) yielded a Relative ionotropic activity of 22.

On to `C[C@@H]1C[C@H](O)[C@]2(O)O[C@@H]3C[C@@]4(C)[C@@H](CC[C@@H]5[C@@H]4CC[C@]4(C)[C@@H](C6=CC(=O)OC6)CC[C@]54O)C[C@H]3O[C@@H]2O1` (stereo in doubt; form 1) [Gomphoside], for which the Relative ionotropic activity was 23.

`C[C@@H]1O[C@@H](O[C@H]2CC[C@@]3(C)[C@H](CC[C@@H]4[C@@H]3CC[C@]3(C)[C@@H](C5=CC(=O)OC5)CC[C@]43O)C2)[C@H](O)[C@H](O)[C@H]1O` (stereo in doubt; form 2) had a Relative ionotropic activity of 9.

`C[C@@H]1C[C@H](O)[C@]2(O)O[C@@H]3C[C@@]4(C)[C@@H](CC[C@@H]5[C@@H]4CC[C@]4(C)[C@@H](C6=CC(=O)OC6)CC[C@]54O)C[C@H]3O[C@@H]2O1` (stereo in doubt; form 2) [Gomphoside] gave a Relative ionotropic activity of 0.2.

On to `C[C@@H]1CC(=O)[C@]2(O)O[C@@H]3C[C@@]4(C)[C@@H](CC[C@@H]5[C@@H]4CC[C@]4(C)[C@@H](C6=CC(=O)OC6)CC[C@]54O)C[C@H]3O[C@@H]2O1` [Didehydro Gomphoside], for which the Relative ionotropic activity came to 2.5.
